No end group written: not given here.

For data set [1] the following is noted: ref Varney et al., 2013; Bakhtiary et al., 2017; cited from earlier work. As for the experimental part:
To investigate the role of Lipid II-binding ability of brevibacillins in their membrane disruption capacity, CF leakage assays were performed using LUVs composed of DOPC with or without Lipid II and containing CF at self-quenching concentrations. LUVs-based CF leakage assay is widely used in the studies of the antibiotic mode of action ([Hasper et al., 2004]; [Smith et al., 2008]; [Slootweg et al., 2015]; [Bakhtiary et al., 2017]). Disruption of the vesicle membrane by certain compounds releases CF from the LUVs into the extra-vesicular milieu resulting in increased fluorescence signal (Figure ...

The conditions of data set [2]: membrane-embedded Lipid II; ref Islam et al., 2012; ‘t Hart et al., 2016; Bakhtiary et al., 2017; Chiorean et al., 2020; cited from earlier work. As for the experimental part:
After confirmation of the fact that brevibacillins bind to Lipid II, an ITC assay was performed to determine the binding affinity of brevibacillins for Lipid II. For this, 2 mol % Lipid II was incorporated into DOPC-based LUVs. […] Nisin, teixobactin, nukacin ISK-1, and lacticin 3147 ...

Data set [3] is described as follows: 31P solid-state NMR of Lipid II in liposomes. It counts as binding. The following applies: DOPC vesicles with 2 mol % Lys-Lipid II, 20 mM HEPES, 100 mM NaCl, pH 8; 200 nmol antibiotic, 100 nmol Lipid II; 500 MHz, 10 kHz MAS, 270 K. The procedure: Multi-lamellar vesicles of DOPC doped with 2 mol % Lys-Lipid II in buffer (20 mm HEPES, 100 mm NaCl, and pH = 8) were collected by centrifugation (60,000 × g) and loaded into 3.2 mm ssNMR rotors. For 3.2 mm rotors, we used 200 nmol of antibiotic with 100 nmol of Lipid II. The 1D ^31P ssNMR experiments were performed at 500 MHz (^1H frequency) magnetic field using 10 kHz magic angle spinning (MAS) at 270 K sample temperature.

Data set [4] concerns S. aureus ATCC15975 (MRSA). The data set can be described thus: Spot-on-lawn assay with Lipid II. It counts as cell-based, Staphylococcus aureus. The settings on record: brevibacillins 0.68 μg, nisin and daptomycin 1.36 μg; Lipid II 300 μM, 4 μl, at edge of halo; MHA, 37°C overnight. The procedure:
An overnight cultured S. aureus ATCC15975 (MRSA) was added to 0.6% MHA (w/v, temperature 42°C) at a final concentration of 0.1% (v/v), and then, the mixture was poured to the plates 10 ml for each. The binding of peptide and Lipid II ([Hasper et al., 2006]) was further evaluated by spotting of purified Lipid II (300 μm, 4 μl) to the edge of inhibition halo of antibiotics (brevibacillins, 0.68 μg; nisin and daptomycin, 1.36 μg). Briefly, antibiotics were loaded to the agar plate. After the antibiotic solution drops had dried, purified Lipid II was spotted to the edge (identified by a pre-experiment) of inhibition halo of antibiotics ([Wang et al., 2020]). After the Lipid II solution drops had dried, the plates were transferred to a 37°C incubator for overnight incubation.

The nature of data set [5]: Pyrene-labeled Lipid II fluorescence quenching assay. The data set is classed as binding. The following applies: 50 μM DOPC LUVs with 0.5 mol % pyrene-labeled Lipid II, 20°C, ex 350 nm. The procedure:
The effects of antibiotics on pyrene-labeled Lipid II were measured using 50 μm DOPC-based large unilamellar vesicles (LUVs) containing 0.5 mol % pyrene-labeled Lipid II ([Breukink et al., 2003]). Briefly, the LUVs were added to a quartz cuvette and titrated with nisin, brevibacillin, or brevibacillin 2V with stirring at 20°C. The fluorescence spectra were recorded between 360 and 600 nm (λex350 nm) using a Cary Eclipse Fluorescence Spectrophotometer (Agilent, United States).

Data set [6] has as its system S. aureus ATCC15975 (MRSA). Kind of data set: Fluorescence microscopy, LIVE/DEAD BacLight (SYTO 9/propidium iodide). It counts as cell-based, Staphylococcus aureus. The settings on record: 2 × MIC (brevibacillins 4 μg/ml, nisin 8 μg/ml), 15 min, room temperature. As for the experimental part:
(§1) Staphylococcus aureus ATCC15975 (MRSA) was grown to an OD600 of 0.8. The culture was pelleted at 5,000 × g for 5 min and washed three times in 10 mm HEPES with 10 mm glucose (pH 7.2). After normalization of the cell density to an OD600 of 0.2 in 10 mm HEPES with 10 mm glucose (pH 7.2), a 2-fold MIC concentration of brevibacillins (4 μg/ml) or nisin (8 μg/ml) was added. At the same time, SYTO® 9 and propidium iodide (LIVE/DEAD Baclight Bacterial Viability Kit, Invitrogen) were added to the above cell suspensions. After incubation at room temperature for 15 min, peptides were removed and washed three times with 10 mm HEPES with 10 mm glucose (pH 7.2). Then, the cell suspensions were loaded on 1.5% agarose pads and analyzed by DeltaVision Elite microscope (Applied Precision; [Zhao and Kuipers, 2021]).

Data set [7] relates to S. aureus ATCC15975 (MRSA). Kind of data set: Time-killing assay. The data set is classed as cell-based, Staphylococcus aureus. The settings on record: MHB, 37°C; for time to complete killing of all cells: 10 × MIC (nisin 40 μg/ml; brevibacillins 20 μg/ml), ≈ 5 × 10^6 cells per ml, 220 rpm, triplicate. The procedure:
This assay was performed according to a previously described procedure ([Ling et al., 2015]; [Zhao et al., 2020b]). An overnight culture of cells [S. aureus ATCC15975 (MRSA)] was diluted 50-fold in MHB and incubated at 37°C with aeration at 220 rpm. Bacteria were grown to an OD600 of 0.5, and then, the concentration of cells was adjusted to ≈ 5 × 10^6 cells per ml. Bacteria were then challenged with nisin (40 μg/ml), brevibacillin (20 μg/ml), brevibacillin V (20 μg/ml), brevibacillin I (20 μg/ml), or brevibacillin 2V (20 μg/ml) in culture tubes at 37°C and 220 rpm (peptides at 10 × MIC, a desirable concentration at the site of infection). Bacteria not treated with peptides were used as negative controls. At desired time points, 200 μl aliquots were taken, centrifuged at 8,000 g for 2 min, and resuspended in 200 μl of MHB. 10-fold serially diluted samples were plated on MHA plates. After incubated at 37°C overnight, colonies were counted and c.f.u. per ml was calculated. Each experiment was performed in triplicate.

For another data set, the system named is S. aureus (MRSA). The data set can be described thus: Membrane permeability assay, concentration series (fluorescence microscopy). It counts as cell-based, Staphylococcus aureus. The settings on record: 100 nM and 400 nM, 15 min; ratio of membrane permeabilized cells; three independent experiments; p < 0.05. The procedure: as §1
GraphPad Prism 7.0 was used to fit the data of time-killing assay, DiSC3(5) assay, fluorescence quenching assay, ITC assay, and CF Leakage assay in Figures 3–7. The fluorescence images (ratio of membrane permeabilized cells) were quantified by the software Adobe Photoshop 2021. The Kd values of brevibacillins to Lipid II were calculated using the Nano Analyze Software (Waters LLC). The statistical significance of the data was assessed using Duncan’s multiple range test with the software SPSS Statistics 26; values of p < 0.05 were considered to be statistically significant.
Figure 7 Brevibacillins disrupt membrane permeability without the need for Lipid II binding. (A), Cartoon schematic of the assay used to assess membrane permeability disruption of brevibacillins. (B), CF releases (%) vs. time graph showing the effects of adding brevibacillins to DOPC-LUVs with 0.1% Lipid II; peptide concentrations were 100 nm; a, when peptides were added; and b, when 20% Triton X-100 added. (C), CF releases (%) vs. time graph showing the effects of adding brevibacillins to LUVs of pure DOPC; peptide concentrations were 100 nm; a, when peptides were added; and b, when 20% Triton X-100 was added. (D), fluorescence microscopic images of S. aureus (MRSA) after have been treated by a series concentrations of brevibacillins and nisin for 15 min. (E), the ratio of membrane permeabilized cells that was quantified by Adobe Photoshop 2021; the data are representative of three independent experiments.
To investigate the in vivo membrane disruption capacity of brevibacillin and brevibacillin 2V, a membrane permeability assay was performed with a series of concentrations of antibiotics. Nisin was used as a control.

The subject of another data set is human red blood cells. The following applies: Figure 1, ref Zhao et al., 2021; cited from earlier work. From the text:
(§2) A vast number of bacterial non-ribosomally produced peptides (NRPs) have shown strong antimicrobial activity against pathogenic bacteria ([Cochrane et al., 2014]; [Cociancich et al., 2015]; [Hamamoto et al., 2015]; [Ling et al., 2015]; [Süssmuth and Mainz, 2017]). Lipo-tridecapeptides, a class of NRPs, show strong antimicrobial activity against Gram-positive pathogens, including antibiotic-resistant Staphylococcus aureus and Enterococcus spp. ([Barsby et al., 2001], [2006]; [Yang et al., 2016]; [Wu et al., 2019]; [Zhao et al., 2021]). However, many of these lipo-tridecapeptides have shown high ... || Figure 1 Structures of brevibacillins. The red color indicates the more hydrophobic amino acid residues of brevibacillin V, brevibacillin and brevibacillin I relative to brevibacillin 2V. MIC, the minimum inhibitory concentration against Staphylococcus aureus (MRSA). HC50, the 50% human blood cell hemolysis concentration. CC50, the 50% cell (HepG2) toxicity concentration.

A further data set has as its system HepG2. The following applies: Figure 1, ref Zhao et al., 2021; cited from earlier work.
Description: as §2

Data set [8] deals with S. aureus ATCC15975 (MRSA) membrane. The data set can be described thus: DiSC3(5) membrane potential assay. The settings on record: 2 × MIC. The data set is classed as cell-based, Staphylococcus aureus. The procedure: Staphylococcus aureus ATCC15975 (MRSA) was grown to an OD600 of 0.8. The culture was pelleted at 5,000 × g for 5 min and washed three times in 10 mm HEPES with 10 mm glucose (pH 7.2). The cell density was normalized to an OD600 of 0.2, loaded with 2 μm DiSC3(5) dye, and incubated for 20 min in the dark for probe fluorescence to stabilize. After incubation, KCl was added to the cell suspension at a final concentration of 100 mm. Subsequently, the cell suspension was added to a 96-well microplate and incubation for 5 min; after that, antibiotics were added at a final concentration of 2 × MIC. Fluorescence was monitored for 25 min, with the antibiotics added after ~20 s. The excitation and emission wavelengths on the fluorescence spectrometer were adjusted to 622 nm and 670 nm, respectively. Representative examples from three technical replicates are shown.

For data set [9] the following is noted: ref Zhao et al., 2021; cited from earlier work.
The subject of data set [10] is Staphylococcus aureus (MRSA). The following applies: Staphylococcus aureus (MRSA); Figure 1; ref Zhao et al., 2021; cited from earlier work. From the text: Figure 1 Structures of brevibacillins. The red color indicates the more hydrophobic amino acid residues of brevibacillin V, brevibacillin and brevibacillin I relative to brevibacillin 2V. MIC, the minimum inhibitory concentration against Staphylococcus aureus (MRSA). HC50, the 50% human blood cell hemolysis concentration. CC50, the 50% cell (HepG2) toxicity concentration. […] LUVs-based CF leakage assay is widely used in the studies of the antibiotic mode of action ([Hasper et al., 2004]; [Smith et al., 2008]; [Slootweg et al., 2015]; [Bakhtiary et al., 2017]). Disruption of the vesicle membrane by certain compounds releases CF from the LUVs into the extra-vesicular milieu resulting in increased fluorescence signal (Figure ...

Consider HNP-1: Lipid II-targeting antimicrobial, for which, in data set [1], the “membrane disruption in Lipid II containing and Lipid II lacking LUVs” value is “cause membrane disruption in both Lipid II containing LUVs and Lipid II lacking LUVs”.

With lacticin 3147, in data set [1], the “membrane disruption in Lipid II containing and Lipid II lacking LUVs” value was “cause membrane disruption in both Lipid II containing LUVs and Lipid II lacking LUVs”. The Kd in data set [2] is 920 nM.

For vancomycin [reference compound], the “31P signals of Lipid II pyrophosphate moiety” value in [3] was “no changes observed for the Lipid II pyrophosphate signals”.

As for daptomycin, the “antimicrobial activity upon addition of purified Lipid II” value in [4] is reported as “kept its antimicrobial activity against S. aureus (MRSA)”.

As to “nisin: well-known Lipid II-targeting antibiotic, pore-forming, used as control (ITSISLCTPGCKTGALMGCNMKTATCHCSIHVSK; not fully specified (some residues, bridges); cysteine pairing not given here; UniProt P13068 24-57, looked up) [reference compound]”, in data set [5], the “excimer fluorescence (about 490 nm)” value is on record as “appearance of a fluorescence peak around 490 nm, indicating the formation of excimers” and the pyrene monomer fluorescence entry is given as “clearly induced a decrease of pyrene monomer fluorescence”. The “membrane integrity (SYTO 9 / propidium iodide staining)” value in data set [6] is “turned red, indicative of a compromised membrane”. Also, the “time to complete killing of all cells” value in data set [7] was not above 4 h. Further, the “membrane permeabilization capacity, comparison” value with S. aureus (MRSA) is “significantly (p < 0.05) higher membrane permeabilization capacity than the brevibacillins”. Besides, in data set [4], the “antimicrobial activity upon addition of purified Lipid II” value is reported as “diminished”. Also, the equilibrium dissociation constant (Kd) in data set [2] is 14.6 nM.

In the case of Brevibacillin V, the “HC50, 50% human blood cell hemolysis concentration” value with human red blood cells is 73.1 ± 1.4 mg/L. For the same substance, the “CC50, 50% cell (HepG2) toxicity concentration” value with HepG2 is 9.89 ± 0.67 µg/mL. In [8], the “speed of membrane permeabilization” value was “appeared to act faster than brevibacillin 2V and the well-known pore-forming antibiotic nisin”. Moreover, in [8] (correlates with calculated hydrophobicity), the “rank order of membrane disruption capacity” value is recorded as “brevibacillin I > brevibacillin > brevibacillin V > brevibacillin 2V”. The “rank order of calculated hydrophobicity” value in data set [9] was “brevibacillin I > brevibacillin > brevibacillin V > brevibacillin 2V”. The “killing kinetics / capacity, in words” value in [7] (10 × MIC (brevibacillins 20 μg/ml; nisin 40 μg/ml)) is listed as “intermediate killing capacity”. Besides, in [7], the “time to complete killing of all cells” value is reported as not above 2 h. The MIC in data set [10] was 2 µg/mL.
